The text below walks through data of patent publication US20160000911A1, “COMBINATION THERAPY OF A TYPE II ANTI-CD20 ANTIBODY WITH INCREASED ANTIBODY DEPENDENT CELLULAR CYTOTOXITY (ADCC)” (ROCHE GLYCART AG, priority 2008, published 2016).

The target of experiment [1] is T1, CD20 on Raji cells (ATCC-No. CCL-86) (Homo sapiens, UniProt P11836).
T1 construct: generated by direct immunofluorescence using the Burkitt's lymphoma cell line Raji (ATCC-No. CCL-86); host or cells: Raji (Burkitt's lymphoma cell line)
T1 sequence (P11836 1-297): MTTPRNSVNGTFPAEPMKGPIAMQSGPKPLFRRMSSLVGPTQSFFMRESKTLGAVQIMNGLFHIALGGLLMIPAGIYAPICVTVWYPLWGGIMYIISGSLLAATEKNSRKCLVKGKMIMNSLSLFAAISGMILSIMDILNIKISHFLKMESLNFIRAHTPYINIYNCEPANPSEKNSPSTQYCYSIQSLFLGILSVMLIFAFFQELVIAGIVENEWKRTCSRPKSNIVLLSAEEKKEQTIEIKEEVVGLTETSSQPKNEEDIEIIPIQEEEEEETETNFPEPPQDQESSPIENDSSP
Description: Ratio of the binding capacities to CD20 on Raji cells compared to rituximab (direct immunofluorescence, Cy5, FACSArray). The settings on record: MFI at EC50 of Cy5-labeled antibodies, 30 min at 4° C. The method, then:
MFI is the mean fluorescent intensity. The “Cy5-labeling ratio” as used herein means the number of Cy5-label molecules per molecule antibody.
Raji cells (ATCC-No. CCL-86) were maintained in culture in RPMI-1640 medium (PanBiotech GmbH, Cat.-No. PO4-18500) containing 10% FCS (Gibco, Cat.-No. 10500-064). […] 5*10^5 cells per sample were stained for 30 min at 4° C. Afterwards, cells were washed in culture medium. Propidium iodide (PI) staining was used to exclude dead cells.
Then the ratio of the binding capacities to CD20 on Raji cells (ATCC-No. CCL-86) is calculated according to the following formula: […]

Experiment [2] relates to WSU-DLCL2 human B-Cell Non-Hodgkin-Lymphoma (NHL). Description: Tumor growth inhibition study in vivo, WSU-DLCL2 xenograft (Example 1). Also on record: species or system SCID beige mice. The text has this: Antibody buffer included histidine, trehalose and polysorbate 20.
Cyclophposphamide and vincristine were purchased as clinical formulation from Baxter Oncology GmbH, Halle, Germany or medac, Gesellschaft für klinische Spezialpräparate mbH, Hamburg, Germany, respectively. Dilution was adjusted from reconstituted stock solution.
WSU-DLCL2 human Non-Hodgkin-Lymphoma (NHL) cells were kindly provided from Hoffmann-La Roche, Inc., Nutley, N.J., USA. […] Passage 4 was used for transplantation. Cells were co-injected with Matrigel.
Continuous health monitoring was carried out on regular basis.
Animal treatment started at the day of randomisation 9 days after cell transplantation. […] The corresponding vehicle was administered on the same days. Cyclophosphamide and vincristine were given i.v. once weekly on day 9, 15, 23, 30, 37, 44, 51 and 58 at 25 mg/kg or 0.25 mg/kg, respectively. In the combination therapy groups, both antibodies were administered 24 hours after the chemotherapeutic agents on day 10, 16, 24, 31, 38, 45, 52 and 59.

With “anti-CD20 antibody B-HH6-B-KV1 GE: Type II anti-CD20 antibody; humanized B-Ly1, glycoengineered B-HH6-B-KV1 with increased ADCC (WO 2005/044859, WO 2007/031875)”, the “binding capacity to CD20 on Raji cells compared to rituximab” value in experiment [1] is given as “reduces binding capacity”. Also, the tumor growth inhibition in experiment [2] (day 35 after cell transplantation, compared to the control group, i.v. once weekly, antibodies 30 mg/kg, cyclophosphamide 25 mg/kg, vincristine 0.25 mg/kg) was determined as 85%. Moreover, the “Tumor growth delay, T − C value” in experiment [2] (median time to reach 1500 mm^3, treatment minus control, until day 64 after cell transplantation) is 19 days.
